Experiments:
HCT-116 = assay: 96 hour growth inhibition, HCT-116; type: cell-based; conditions: Homo sapiens, HCT-116, COLO-RECTAL
Method: (§1) Two compounds were selected from our library of cytotoxic molecules for immunoconjugation since they both have IC50 values in the low nanomolar range. Various tumor cell lines (ATCC) were treated for 96 hours in the presence of increasing concentrations of each compound and the total number of viable cells remaining was determined after 96 hours of exposure. The IC50 value was determined to be the amount of drug required to inhibit the growth of each cell line 50% as compared to vehicle treated cells.

U87 = assay: 96 hour growth inhibition, U87; type: cell-based; conditions: Homo sapiens, U-87 MG, U87, GLIOBLASTOMA
Method: as §1

MES-SA/Dx5 (RESISTANT) = assay: growth inhibition, MES-SA/Dx5 (resistant); type: cell-based, Human; conditions: for IC50: Homo sapiens, MES-SA/Dx5 (RESISTANT), uterine sarcoma, multidrug resistant; for RSIST-ANCE: MES-SA/Dx5 (RESISTANT) versus MES-SA (PARENTAL)
Method: as §1
(§2) Another extremely important predictive factor is the ability of these compounds to kill cell lines overexpressing multiple drug resistance (MDR) genes. A very high percentage of cancer patient relapses are due to some form of resistance to traditional chemotherapy. Of these patients, the vast majority express one or more of the MDR genes within the ABC transport gene family. Overexpression of these genes increases the efflux of compounds that are recognized by these pumping systems. […] Onconova's benzyl styryl sulfone compounds are not recognized by the MDR-1 gene and therefore provide an advantage over other highly toxic drugs including but not limited to the taxanes, doxorubicin, etoposide, and vinca-alkaloids. […] MES-SA/Dx5, uterine sarcoma, and […], ovarian, are both classical multidrug resistant cell lines that are cross resistant to the taxanes and anthracyclins. Harker, W G, and Sikic, B. I., Multidrug (Pleiotropic) Resistance In Doxorubicin-Selected Variants Of The Human Sarcoma Cell Line MES-SA, Cancer Res. 45(9):4091-6 (1985). MES-SA/Dx5 and Apr. […] Fujimori, A., et al., Mutation At The Catalytic Site Of Topoisomerase I In CEM/C2, A Human Leukemia Cell Line Resistant To Camptothecin, Cancer Res. 55(6): 1339-46 (1995). ON 01500 and ON 013100, for example, are both extremely active against these resistant cell lines.

HCT-15 = assay: 96 hour growth inhibition, HCT-15; type: cell-based; conditions: Homo sapiens, HCT-15, COLO-RECTAL
Method: as §1

RPMI 8266 = assay: growth inhibition, multiple myeloma cell line RPMI 8266; type: cell-based; conditions: Homo sapiens, RPMI8266; RPMI 8266, multiple myeloma, CD38 + CD138 + CD20 −
Method: as §1
(§3) Pellat-Deceunynk, C., et al., Human Myeloma Cell Lines As A Tool For Studying The Biology Of Multiple Myeloma: A Reappraisal 18 Years After, Blood 86(10):4001-2 (1995); Gooding, R. P., et al., Phenotypic And Molecular Analysis Of Six Human Cell Lines Derived From Patients With Plasma Cell Dyscrasia, British Journal of Haematology 106:669-688 (1999).

CEM/C2 (RESISTANT) = assay: growth inhibition, CEM/C2 (resistant); type: cell-based, Human; conditions: for RSIST-ANCE: CEM/C2 (RESISTANT) versus CEM (PARENTAL); for IC50: Homo sapiens, CEM/C2 (RESISTANT), non classical multiple drug resistant
Method: as §1, §2

NCI-H929 = assay: growth inhibition, multiple myeloma cell line NCI-H929; type: cell-based; conditions: Homo sapiens, CD38 + CD138 + CD20 −
Method: as §1, §3

MCF-7 = assay: growth inhibition, breast carcinoma cell line MCF-7; type: cell-based; conditions: Homo sapiens, MCF7; MCF-7, BREAST (ER+), HER2 +
Method: as §1
(§4) Certain embodiments of immunoconjugates described herein are targeted to HER2 expressing breast cancer cells. Certain embodiments of immunoconjugates described herein are targeted to multiple myeloma (MM) cell lines expressing the surface antigens CD38 and or CD138. The IC50 value of ON 015100 and ON 013100 was determined for a number of breast cell lines as well as a panel of multiple myeloma cell lines expressing varying levels of each antigen and the data are shown in table (4) and table (5), respectively. […] Two cell lines, SK-BR-3 and BT474, known to express very high levels of HER2 are more than 2 fold more sensitive to ON 013100 as compared to the cell lines which express lower levels of HER2. Marx C., et al., Validated High-Throughput Screening of Drug-Like Small Molecules for Inhibitors of ErbB2 Transcription. Assay Drug Dev. […]

Sk-OV-3 = assay: 96 hour growth inhibition, Sk-OV-3; type: cell-based; conditions: Homo sapiens, Sk-OV-3, OVARIAN
Method: as §1

A549 = assay: 96 hour growth inhibition, A549; type: cell-based; conditions: Homo sapiens, A549, NSCLC
Method: as §1

DU145 = assay: 96 hour growth inhibition, DU145; type: cell-based; conditions: Homo sapiens, DU-145, DU145, PROSTATE (AR−)
Method: as §1

SK-MEL-28 = assay: 96 hour growth inhibition, SK-MEL-28; type: cell-based; conditions: Homo sapiens, SK-MEL-28, MELANOMA
Method: as §1

MIA-PaCa2 = assay: 96 hour growth inhibition, MIA-PaCa2; type: cell-based; conditions: Homo sapiens, MIA PaCa-2
Method: as §1

BT20 = assay: growth inhibition, breast carcinoma cell line BT20; type: cell-based; conditions: Homo sapiens, BT-20; BT20, BREAST (ER−), HER2 ++
Method: as §1, §4

BT474 = assay: growth inhibition, breast carcinoma cell line BT474; type: cell-based; conditions: Homo sapiens, BT-474; BT474, BREAST (ER+), HER2 ++++
Method: as §1, §4

2008 (PARENTAL) = assay: growth inhibition, 2008 (parental); type: cell-based; conditions: ovarian
Method: as §1, §2

AGS = assay: 96 hour growth inhibition, AGS; type: cell-based; conditions: Homo sapiens, GASTRIC
Method: as §1

Namalwa = assay: 96 hour growth inhibition, Namalwa; type: cell-based; conditions: Burkitt's Lymphoma (B-cell)
Method: as §1

OPM-2 = assay: growth inhibition, multiple myeloma cell line OPM-2; type: cell-based; conditions: Homo sapiens; OPM-2, multiple myeloma, CD38 + CD138 + CD20 −
Method: as §1, §3

2008/17/4 (RESISTANT) = assay: growth inhibition, 2008/17/4 (resistant); type: cell-based; conditions: for RSIST-ANCE: 2008/17/4 (RESISTANT) versus 2008 (PARENTAL); for IC50: 2008/17/4 (RESISTANT), ovarian, multidrug resistant
Method: as §1, §2

RF48 = assay: 96 hour growth inhibition, RF48; type: cell-based; conditions: RF48, GASTRIC
Method: as §1

Row | SMILES | IC50 (HCT-116) | IC50 (U87) | IC50 (MES-SA/Dx5 (RESISTANT)) | RSIST-ANCE (MES-SA/Dx5 (RESISTANT)) | IC50 (HCT-15) | IC50 (RPMI 8266) | RSIST-ANCE (CEM/C2 (RESISTANT)) | IC50 (CEM/C2 (RESISTANT)) | IC50 (NCI-H929) | IC50 (MCF-7) | IC50 (Sk-OV-3) | IC50 (A549) | IC50 (DU145) | IC50 (SK-MEL-28) | IC50 (MIA-PaCa2) | IC50 (BT20) | IC50 (BT474) | IC50 (2008 (PARENTAL)) | IC50 (AGS) | IC50 (Namalwa) | other results
1 | COc1cc(OC)c(/C=C/S(=O)(=O)Cc2ccc(OC)c(N)c2)c(OC)c1 [ON 01500, (E)-2,4,6-trimethoxystyryl-4-methoxy-3-aminobenzylsulfone] | 6 nM | 3 nM | 4 nM | 1 | 5 nM | 3 nM | 1 | 10 nM | 0.8 nM | 1 nM | 3 nM | 3 nM | 5 nM | 5 nM | 3 nM | 4 nM | 2 nM | 3 nM | 3 nM | 5 nM | IC50 (OPM-2): 3 nM; RSIST-ANCE (2008/17/4 (RESISTANT)): 1; IC50 (2008/17/4 (RESISTANT)): 3 nM; IC50 (RF48): 1 nM
2 | COc1cc(OC)c(/C=C/S(=O)(=O)Cc2ccc(OC)c(O)c2)c(OC)c1 [ON 013100, (E)-5-((2,4,6-trimethoxystyrylsulfonyl)methyl)-2-methoxyphenol] | 6 nM | 7 nM | 5 nM | 1 | 7 nM | 5 nM | 0.75 | 3 nM | 1 nM | 10 nM | 4 nM | 10 nM | 5 nM | 7 nM | 3 nM | 80 nM | 3 nM | 5 nM | 5 nM | 3 nM | IC50 (OPM-2): 4 nM; RSIST-ANCE (2008/17/4 (RESISTANT)): 1.3; IC50 (2008/17/4 (RESISTANT)): 6 nM; IC50 (RF48): 1 nM

Source: patent US8273787B2, “Activated cytotoxic compounds for attachment to targeting molecules for the treatment of mammalian disease conditions” (Onconova Therapeutics, Inc, priority 2006, dated 2012)
